Test results reported in patent US7947675B2, “Trifluoromethylbenzamide derivatives and therapeutic uses thereof” (Merck Patent GmbH, priority 2005, dated 2011).

Tests used:
[1] = target: T1, CETP (cholesteryl ester transfer protein) (Homo sapiens, UniProt P11597); assay: In vitro screening test: inhibitory effect on the activity of CETP (3H-cholesterol ester transfer from HDL to biotinylated LDL, SPA); format: biochemical; conditions: incubation 24 hours at 37° C., relative to control (CETP+solvent)
T1 sequence (P11597 18-493): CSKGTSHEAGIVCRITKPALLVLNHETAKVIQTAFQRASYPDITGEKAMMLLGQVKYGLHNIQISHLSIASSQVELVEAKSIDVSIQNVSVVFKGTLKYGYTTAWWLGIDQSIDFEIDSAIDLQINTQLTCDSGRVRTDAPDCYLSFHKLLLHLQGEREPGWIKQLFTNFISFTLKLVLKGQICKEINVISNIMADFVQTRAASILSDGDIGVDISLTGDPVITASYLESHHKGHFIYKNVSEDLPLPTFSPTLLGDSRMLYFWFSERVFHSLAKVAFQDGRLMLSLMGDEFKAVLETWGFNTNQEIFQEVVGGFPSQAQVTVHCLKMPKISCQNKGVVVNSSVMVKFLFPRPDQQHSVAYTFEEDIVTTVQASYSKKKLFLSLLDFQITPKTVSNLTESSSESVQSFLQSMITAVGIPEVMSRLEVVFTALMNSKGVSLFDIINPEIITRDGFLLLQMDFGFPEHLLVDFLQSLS
Protocol: Measurement of an inhibitory effect on the activity of CETP (cholesteryl ester transfer protein)
The measurement of the CETP activity is performed by measuring the transfer of ^3H-cholesterol ester from the HDLs to the biotinylated LDLs.
The transfer is measured after incubation for 24 hours in the presence of donor (HDL), acceptor (LDL) and CETP, with or without inhibitor. The reaction is stopped and the transfer measured by addition of SPA streptavidin beads (Amersham).
The increase in scintillation is proportional to the transfer of ^3H-cholesterol ester via CETP to the LDLs.
To perform the test, 10 μl of ^3H-cholesterol ester HDL, 10 μl of biotinylated LDL and 10 μl of HEPES buffer (50 mM HEPES/[…]/0.1% BSA/0.05% NaN3, pH 7.4) are mixed with 10 μl of CETP (1 mg/ml) and the test product (1 μl of the stock solution at 10 mM in DMSO) or 1 μl of DMSO alone in a 96-well microplate (Costar).
Screening is performed at a final concentration of 10 μM per well in 0.1% of solvent.
The plates are then covered with a film, shaken and incubated under a humid atmosphere at 37° C. for 24 hours.
200 μl of SPA-streptavidin beads solution (Amersham, TRKQ 7005) are added and the radioactivity reading is taken 1 hour later on a scintillation counter (Top Count, Packard) with a reading time of 0.5 minute.
The inhibition results are expressed relative to the control test (CETP+solvent).
The IC 50 values are determined and expressed in μM.

SMILES | IC50 [1] | melting point
Nc1cc(C(F)(F)F)cc(C(=O)Nc2ccc(Cl)c(Cl)c2)c1N1CCCCC1 [Example 2, 3-Amino-N-(3,4-dichlorophenyl)-2-piperid-1-yl-5-trifluoromethylbenzamide] | 930 nM | –
O=C(Nc1ccc(Cl)c(Cl)c1)c1cc(C(F)(F)F)cc([N+](=O)[O-])c1N1CCCCC1 [Example 1, N-(3,4-Dichlorophenyl)-3-nitro-2-piperid-1-yl-5-trifluoromethylbenzamide] | 1450 nM | –

Other lines, results leading:

IC50 [1] | melting point | SMILES
– | 175 °C | N#Cc1cc(C(F)(F)F)cc(C(=O)Nc2ccc(Cl)c(Cl)c2)c1N1CCCCC1 [Example 4, 3-Cyano-N-(3,4-dichlorophenyl)-2-piperid-1-yl-5-trifluoromethylbenzamide]
750 nM | – | CC1CCN(c2c(Cl)cc(C(F)(F)F)cc2C(=O)Nc2ccc(Cl)c(Cl)c2)CC1 [Example 6, 3-Chloro-N-(3,4-dichlorophenyl)-2-(4-methylpiperid-1-yl)-5-trifluoromethylbenzamide]
890 nM | – | O=C(Nc1ccc(Cl)c(Cl)c1)c1cc(C(F)(F)F)cc(Br)c1N1CCCCC1 [Example 3, 3-Bromo-N-(3,4-dichlorophenyl)-2-piperid-1-yl-5-trifluoromethylbenzamide]
